Data reported in US8247211B2, “Glycopeptide antibiotics” (American Cyanamid Company, priority 2001, dated 2012).
Values after ≈ are worked out from the molar mass of the structure shown. Blank lines part the entries; values can stand above or below the molecule they belong to.

How the values were obtained:
Test in all cases: In vitro antibacterial evaluation: minimum inhibitory concentration (MIC), broth dilution method
Assay type in all cases: cell-based
Enterococcus sp. = conditions: for MIC Enterococcus faecalis (ATCC 29212): strain ATCC 29212; for MIC Enterococcus faecium (GC 2243): strain GC 2243; for MIC Enterococcus faecalis (GC 4552): strain GC 4552; for MIC Enterococcus faecalis (GC 4553): strain GC 4553; for MIC Enterococcus faecalis (GC 4554): strain GC 4554; for MIC Enterococcus faecium (GC 4556): strain GC 4556; for MIC Enterococcus faecium (GC 4557): strain GC 4557; for MIC Enterococcus avium (GC 4558): strain GC 4558; for MIC Enterococcus faecalis (GC 6189): strain GC 6189
Method: (§1) The minimum inhibitory concentration (MIC), the lowest concentration of the antibiotic which inhibits growth of the test organism, is determined by the broth dilution method using Muller-Hinton II […] (Baltimore Biological Laboratories) following the recommendations of the National Committee for Clinical Laboratory Standards [Methods for dilution antimicrobial susceptibility tests for bacteria that grow aerobically, approved standard M7-A2, National Committee for Clinical Laboratory Standards, Villanova, Pa].
(§2) An inoculum level of 5×10^5 CFU/mL, and a range of antibiotic concentrations (64-0.06 μg/mL) is used. […] The test organisms include a spectrum of Gram-positive bacteria comprised of Staphylococcus sp., Streptococcus sp. and Enterococcus sp. These organisms include recent clinical isolates that are resistant to methicillin, penicillin and/or vancomycin.

Escherichia coli = conditions: strain GC 4560
Method: as §1, §2

Staphylococcus sp. = conditions: broth dilution, 18 hours at 35° C.; for MIC Staphylococcus aureus-SMITH (GC 4543): strain SMITH GC 4543
Method: as §1, §2

Streptococcus sp. = system: Streptococcus sp.
Method: as §1, §2

[1] = Enterococcus faecalis (GC 2242), broth dilution, 18 hours at 35° C.
[2] = Enterococcus faecalis (GC 2691), broth dilution, 18 hours at 35° C.
[3] = Enterococcus faecalis (GC 3059), broth dilution, 18 hours at 35° C.
[4] = Streptococcus agalactiae (GC 4564), broth dilution, 18 hours at 35° C.
[5] = Streptococcus pneumoniae (ATCC 6301), broth dilution, 18 hours at 35° C.
[6] = Streptococcus pneumoniae (GC 1894), broth dilution, 18 hours at 35° C.
[7] = Streptococcus pneumoniae (GC 4565), broth dilution, 18 hours at 35° C.
[8] = Streptococcus pyogenes (GC 4563), broth dilution, 18 hours at 35° C.

MIC Enterococcus faecalis (GC 2242) (Enterococcus sp.; [1]): 16 µg/mL (≈ 8.52 µM)
MIC Enterococcus faecalis (GC 2691) (Enterococcus sp.; [2]): 8 µg/mL (≈ 4.26 µM)
MIC Enterococcus faecalis (GC 3059) (Enterococcus sp.; [3]): 32 µg/mL (≈ 17 µM)
MIC Enterococcus faecalis (ATCC 29212) (Enterococcus sp.): 8 µg/mL (≈ 4.26 µM)
MIC Enterococcus faecalis (GC 2242) (Enterococcus sp.; strain GC 2242): 16 µg/mL (≈ 8.52 µM)
MIC Enterococcus faecium (GC 2243) (Enterococcus sp.): 8 µg/mL (≈ 4.26 µM)
MIC Enterococcus faecalis (GC 2691) (Enterococcus sp.; strain GC 2691): 8 µg/mL (≈ 4.26 µM)
MIC Enterococcus faecalis (GC 3059) (Enterococcus sp.; strain GC 3059): 32 µg/mL (≈ 17 µM)
MIC Enterococcus faecalis (GC 4552) (Enterococcus sp.): 32 µg/mL (≈ 17 µM)
MIC Enterococcus faecalis (GC 4553) (Enterococcus sp.): 4 µg/mL (≈ 2.13 µM)
MIC Enterococcus faecalis (GC 4554) (Enterococcus sp.): 16 µg/mL (≈ 8.52 µM)
MIC Enterococcus faecium (GC 4556) (Enterococcus sp.): 32 µg/mL (≈ 17 µM)
MIC Enterococcus faecium (GC 4557) (Enterococcus sp.): 4 µg/mL (≈ 2.13 µM)
MIC Enterococcus avium (GC 4558) (Enterococcus sp.): 2 µg/mL (≈ 1.06 µM)
MIC Enterococcus faecalis (GC 6189) (Enterococcus sp.): 8 µg/mL (≈ 4.26 µM)
MIC Escherichia coli (GC 4560) (Escherichia coli): 2 µg/mL (≈ 1.06 µM)
MIC Coagulase Negative Staphylococcus (GC 4547) (Staphylococcus sp.): 4 µg/mL (≈ 2.13 µM)
MIC Coagulase Negative Staphylococcus (GC 4548) (Staphylococcus sp.): 4 µg/mL (≈ 2.13 µM)
MIC Coagulase Negative Staphylococcus (GC 4549) (Staphylococcus sp.): 2 µg/mL (≈ 1.06 µM)
MIC Coagulase Negative Staphylococcus (GC 4551) (Staphylococcus sp.): 4 µg/mL (≈ 2.13 µM)
MIC Coagulase Negative Staphylococcus (GC 6257) (Staphylococcus sp.): 4 µg/mL (≈ 2.13 µM)
MIC Staphylococcus aureus (ATCC 29213) (Staphylococcus sp.): 4 µg/mL (≈ 2.13 µM)
MIC Staphylococcus aureus (GC 1131) (Staphylococcus sp.): 8 µg/mL (≈ 4.26 µM)
MIC Staphylococcus aureus (GC 3051) (Staphylococcus sp.): 4 µg/mL (≈ 2.13 µM)
MIC Staphylococcus aureus (GC 3053) (Staphylococcus sp.): 4 µg/mL (≈ 2.13 µM)
MIC Staphylococcus aureus (GC 4541) (Staphylococcus sp.): 4 µg/mL (≈ 2.13 µM)
MIC Staphylococcus aureus (GC 4542) (Staphylococcus sp.): 4 µg/mL (≈ 2.13 µM)
MIC Staphylococcus aureus (GC 4544) (Staphylococcus sp.): 8 µg/mL (≈ 4.26 µM)
MIC Staphylococcus aureus (GC 4545) (Staphylococcus sp.): 4 µg/mL (≈ 2.13 µM)
MIC Staphylococcus aureus SMITH (GC 4543) (Staphylococcus sp.): 4 µg/mL (≈ 2.13 µM)
MIC Staphylococcus aureus-SMITH (GC 4543) (Staphylococcus sp.): 4 µg/mL (≈ 2.13 µM)
MIC Streptococcus agalactiae (GC 4564) (Streptococcus sp.; [4]): 4 µg/mL (≈ 2.13 µM)
MIC Streptococcus pneumoniae (ATCC 6301) (Streptococcus sp.; [5]): 4 µg/mL (≈ 2.13 µM)
MIC Streptococcus pneumoniae (GC 1894) (Streptococcus sp.; [6]): 8 µg/mL (≈ 4.26 µM)
MIC Streptococcus pneumoniae (GC 4565) (Streptococcus sp.; [7]): 8 µg/mL (≈ 4.26 µM)
MIC Streptococcus pyogenes (GC 4563) (Streptococcus sp.; [8]): 4 µg/mL (≈ 2.13 µM)
MIC Streptococcus pneumoniae (ATCC 6301) (Streptococcus sp.; strain ATCC 6301): 4 µg/mL (≈ 2.13 µM)
MIC Streptococcus pneumoniae (GC 1894) (Streptococcus sp.; strain GC 1894): 8 µg/mL (≈ 4.26 µM)
MIC Streptococcus pyogenes (GC 4563) (Streptococcus sp.; strain GC 4563): 4 µg/mL (≈ 2.13 µM)
MIC Streptococcus agalactiae (GC 4564) (Streptococcus sp.; strain GC 4564): 4 µg/mL (≈ 2.13 µM)
MIC Streptococcus pneumoniae (GC 4565) (Streptococcus sp.; strain GC 4565): 8 µg/mL (≈ 4.26 µM)
Compound: CC(c1ccccc1)C1NC(=O)CNC(=O)C(CO)NC(=O)C(C(O)C2CN(Cc3ccccc3)C(=NCc3ccccc3)N2C2OC(CO)C(O)C(O)C2O)NC(=O)C(C(O)C2CN(Cc3ccccc3)C(=NCc3ccccc3)N2Cc2ccccc2)NC(=O)C(Cc2ccc(OC3OC(CO)C(OC4OC5COC6(OC5C(O)C4O)C4CC5CC(C4)CC6C5)C(O)C3O)cc2)NC1=O (stereo not drawn) [Example 79, Cyclo[glycyl-β-methylphenylalanyl-O-[4-O-[4,6-O-(2-adamantylidene)hexopyranosyl]hexopyranosyl]tyrosyl-3-[1,3-dibenzyl-2-(benzylimino)imidazolidin-4-yl]seryl-3-[1-benzyl-2-(benzylimino)-3-hexopyranosylimidazolidin-4-yl]serylseryl]]
MIC Staphylococcus haemolyticus (GC 4546) (Staphylococcus sp.): 4 µg/mL (≈ 2.13 µM)

MIC Enterococcus faecalis (GC 2242) (Enterococcus sp.; [1]): 16 µg/mL (≈ 10.2 µM)
MIC Enterococcus faecalis (GC 2691) (Enterococcus sp.; [2]): 16 µg/mL (≈ 10.2 µM)
MIC Enterococcus faecalis (GC 3059) (Enterococcus sp.; [3]): 16 µg/mL (≈ 10.2 µM)
MIC Enterococcus faecalis (ATCC 29212) (Enterococcus sp.): 16 µg/mL (≈ 10.2 µM)
MIC Enterococcus faecalis (GC 2242) (Enterococcus sp.; strain GC 2242): 16 µg/mL (≈ 10.2 µM)
MIC Enterococcus faecium (GC 2243) (Enterococcus sp.): 8 µg/mL (≈ 5.12 µM)
MIC Enterococcus faecalis (GC 2691) (Enterococcus sp.; strain GC 2691): 16 µg/mL (≈ 10.2 µM)
MIC Enterococcus faecalis (GC 3059) (Enterococcus sp.; strain GC 3059): 16 µg/mL (≈ 10.2 µM)
MIC Enterococcus faecalis (GC 4552) (Enterococcus sp.): 16 µg/mL (≈ 10.2 µM)
MIC Enterococcus faecalis (GC 4553) (Enterococcus sp.): 8 µg/mL (≈ 5.12 µM)
MIC Enterococcus faecalis (GC 4554) (Enterococcus sp.): 32 µg/mL (≈ 20.5 µM)
MIC Enterococcus faecium (GC 4556) (Enterococcus sp.): 16 µg/mL (≈ 10.2 µM)
MIC Enterococcus faecium (GC 4557) (Enterococcus sp.): 2 µg/mL (≈ 1.28 µM)
MIC Enterococcus avium (GC 4558) (Enterococcus sp.): 4 µg/mL (≈ 2.56 µM)
MIC Enterococcus faecalis (GC 6189) (Enterococcus sp.): 16 µg/mL (≈ 10.2 µM)
MIC Escherichia coli (GC 4560) (Escherichia coli): 4 µg/mL (≈ 2.56 µM)
MIC Coagulase Negative Staphylococcus (GC 4547) (Staphylococcus sp.): 4 µg/mL (≈ 2.56 µM)
MIC Coagulase Negative Staphylococcus (GC 4548) (Staphylococcus sp.): 4 µg/mL (≈ 2.56 µM)
MIC Coagulase Negative Staphylococcus (GC 4549) (Staphylococcus sp.): 4 µg/mL (≈ 2.56 µM)
MIC Coagulase Negative Staphylococcus (GC 4551) (Staphylococcus sp.): 8 µg/mL (≈ 5.12 µM)
MIC Staphylococcus aureus (ATCC 29213) (Staphylococcus sp.): 8 µg/mL (≈ 5.12 µM)
MIC Staphylococcus aureus (GC 1131) (Staphylococcus sp.): 16 µg/mL (≈ 10.2 µM)
MIC Staphylococcus aureus (GC 3051) (Staphylococcus sp.): 8 µg/mL (≈ 5.12 µM)
MIC Staphylococcus aureus (GC 3053) (Staphylococcus sp.): 16 µg/mL (≈ 10.2 µM)
MIC Staphylococcus aureus (GC 4541) (Staphylococcus sp.): 8 µg/mL (≈ 5.12 µM)
MIC Staphylococcus aureus (GC 4542) (Staphylococcus sp.): 16 µg/mL (≈ 10.2 µM)
MIC Staphylococcus aureus (GC 4544) (Staphylococcus sp.): 16 µg/mL (≈ 10.2 µM)
MIC Staphylococcus aureus (GC 4545) (Staphylococcus sp.): 8 µg/mL (≈ 5.12 µM)
MIC Staphylococcus aureus SMITH (GC 4543) (Staphylococcus sp.): 8 µg/mL (≈ 5.12 µM)
MIC Staphylococcus aureus-SMITH (GC 4543) (Staphylococcus sp.): 8 µg/mL (≈ 5.12 µM)
MIC Streptococcus agalactiae (GC 4564) (Streptococcus sp.; [4]): 0.5 µg/mL (≈ 0.32 µM)
MIC Streptococcus pneumoniae (ATCC 6301) (Streptococcus sp.; [5]): 2 µg/mL (≈ 1.28 µM)
MIC Streptococcus pneumoniae (GC 1894) (Streptococcus sp.; [6]): 0.25 µg/mL (≈ 0.16 µM)
MIC Streptococcus pneumoniae (GC 4565) (Streptococcus sp.; [7]): 2 µg/mL (≈ 1.28 µM)
MIC Streptococcus pyogenes (GC 4563) (Streptococcus sp.; [8]): 1 µg/mL (≈ 0.64 µM)
MIC Streptococcus pneumoniae (ATCC 6301) (Streptococcus sp.; strain ATCC 6301): 2 µg/mL (≈ 1.28 µM)
MIC Streptococcus pneumoniae (GC 1894) (Streptococcus sp.; strain GC 1894): 0.25 µg/mL (≈ 0.16 µM)
MIC Streptococcus pyogenes (GC 4563) (Streptococcus sp.; strain GC 4563): 1 µg/mL (≈ 0.64 µM)
MIC Streptococcus agalactiae (GC 4564) (Streptococcus sp.; strain GC 4564): 0.5 µg/mL (≈ 0.32 µM)
MIC Streptococcus pneumoniae (GC 4565) (Streptococcus sp.; strain GC 4565): 2 µg/mL (≈ 1.28 µM)
Compound: CC(C)=CCCC(C)=CCN=C1NCC(C(O)C2NC(=O)C(C(O)C3CNC(=N)N3)NC(=O)C(Cc3ccc(OC4OC(CO)C(OC5OC6COC7(OC6C(O)C5O)C5CC6CC(C5)CC7C6)C(O)C4O)cc3)NC(=O)C(C(C)c3ccccc3)NC(=O)CNC(=O)C(CO)NC2=O)N1C1OC(CO)C(O)C(O)C1O (stereo not drawn) [Example 82, Cyclo[glycyl-β-methylphenylalanyl-O-[4-O-[4,6-O-(2-adamantylidene)hexopyranosyl]hexopyranosyl]tyrosyl-3-(2-iminoimidazolidin-4-yl)seryl-3-[1-[(3,7-dimethylocta-2,6-dien-1-yl)-imino]-3-hexopyranosylimidazolidin-4-yl]serylseryl]]
MIC Staphylococcus haemolyticus (GC 4546) (Staphylococcus sp.): 4 µg/mL (≈ 2.56 µM)
